Patent publication US20250163119A1, “COMPOUNDS FOR THE TREATMENT OF DIABETES OR OBESITY” (Eli Lilly and Company, priority 2023, published 2025)
Values joined by “and” are separate entries in the source; they are usually repeats but may differ in a detail not shown here. Identical values can stand only once. Like-named read-outs stand apart in the source and are kept apart here. *1 amine or outer side, *2 acyl side, *3 side chain or, on linkers, in order; H or OH if unused. Where a SMILES comes first, the peptide text is derived from it. Where no end group is shown, it is not given here. Side-chain parts run from the residue outwards. [ ]: non-standard residue; d: D form. The star is where a group is joined. C20 diacid = O=C(O)CCCCCCCCCCCCCCCCCCC(=O)*; γGlu = O=C(O)[C@H](CCC(=O)[*:2])N[*:1]; εLys = N[C@@H](CCCCN[*:1])C(=O)[*:2]; αMeL = CC(C)C[C@](C)(N)C(=O)O; AEEA = NCCOCCOCC(=O)O; Aib = CC(C)(N)C(=O)O

Columns and labels:
[1] = target: T1, human CRHR1 (Homo sapiens, UniProt P34998); test: Human CRHR1 cAMP assay (HTRF) in HEK293 cells stably expressing human CRHR1; format: cell-based; details: HEK293 cells overexpressing human CRHR1; relative EC50, maximum 66 nM human UCN1; mean ± SE; read-out: hCRHR1 cAMP EC50 (pM, ± SE)
T1 construct: expressed in transfected cells
T1 sequence (P34998 24-415): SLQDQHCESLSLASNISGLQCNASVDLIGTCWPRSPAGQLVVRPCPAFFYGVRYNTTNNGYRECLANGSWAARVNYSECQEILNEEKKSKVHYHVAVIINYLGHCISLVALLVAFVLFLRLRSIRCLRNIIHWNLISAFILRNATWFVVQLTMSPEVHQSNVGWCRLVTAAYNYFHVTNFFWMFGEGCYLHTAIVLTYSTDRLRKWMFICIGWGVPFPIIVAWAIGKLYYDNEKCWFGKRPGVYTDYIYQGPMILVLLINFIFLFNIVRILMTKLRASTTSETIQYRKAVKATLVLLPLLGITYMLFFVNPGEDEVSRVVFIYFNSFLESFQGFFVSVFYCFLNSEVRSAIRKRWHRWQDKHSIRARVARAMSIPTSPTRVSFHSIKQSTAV
How it was run: (§1)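 HEK293 cells stably expressing human CRHR1 (25,000/well) or CRHR2b (5,000/well) were treated with peptides in MEM with 0.1% casein, 5 mM HEPES pH 7.4 and 0.25 mM IBMX. Incubation was 1 h at 37 °C for CRHR1 and 30 min at room temperature for CRHR2. cAMP was measured by HTRF (665/620 nm) against a per-experiment cAMP standard curve.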

[2] = target: T2, human CRHR2 (Homo sapiens, UniProt Q13324); test: Human CRHR2 cAMP assay (HTRF) in HEK293 cells stably expressing human CRHR2; format: cell-based; details: HEK293 cells overexpressing human CRHR2; relative EC50, maximum 10 nM human UCN2; mean ± SE; read-out: hCRHR2 cAMP EC50 (pM, ± SE)
T2 construct: expressed in transfected cells
T2 sequence (Q13324 1-438 isoform Q13324-2): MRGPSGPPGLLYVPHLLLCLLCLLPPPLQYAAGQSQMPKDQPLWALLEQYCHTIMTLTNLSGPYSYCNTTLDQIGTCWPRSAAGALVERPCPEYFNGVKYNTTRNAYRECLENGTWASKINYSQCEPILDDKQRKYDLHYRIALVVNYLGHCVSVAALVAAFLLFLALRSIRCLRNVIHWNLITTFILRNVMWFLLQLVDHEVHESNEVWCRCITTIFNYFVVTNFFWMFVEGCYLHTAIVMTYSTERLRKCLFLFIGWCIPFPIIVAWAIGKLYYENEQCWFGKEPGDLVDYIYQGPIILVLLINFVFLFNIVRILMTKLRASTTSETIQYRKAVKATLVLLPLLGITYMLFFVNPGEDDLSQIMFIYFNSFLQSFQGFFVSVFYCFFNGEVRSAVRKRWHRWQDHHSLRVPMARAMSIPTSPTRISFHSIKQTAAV
How it was run: as §1

[3] = Pharmacokinetics in Sprague Dawley rats, single subcutaneous or intravenous dose (incl. 10, 30, 100 nmol/kg dose response); format: in vivo
[4] = test system: MHC-II presented peptides on human dendritic cells; test: MAPPS assay (MHC-Associated Peptide Proteomics); format: cell-based
Procedure: MAPPS profiles the MHC-II presented peptides on human dendritic cells treated with tested molecules. CD14+ cells, isolated from the PBMCs of normal human donors, were cultured and differentiated into immature DCs by incubation with IL-4 and GM-CSF. On day 4, culture media was replaced with fresh media containing tested molecules. On day 5, LPS was added to transform the cells into mature DCs. On day 6, cells were lysed in RIPA buffer with protease inhibitors. Immunoprecipitation of MHC-II complexes were performed using biotinylated anti-MHC-II antibody coupled to streptavidin beads. The bound complex was eluted and filtered. The isolated MHC-II peptides were analyzed by a mass spectrometer. Peptide identifications were generated by an internal proteomics pipeline using search algorithms with no enzyme and a bovine/human database with test sequences appended to the database. A KNIME workflow was used to process the identification files from the samples. Peptides identified from the test articles were aligned against the parent sequence of the test molecule. The output was used to determine the percentage of donors displaying MHC-II peptides from regions of the test molecule. Polypeptides comprising SEQ ID NOs:54, 49, 50, 29, 41, 45, 1, 22, 25 were tested in the MAPPs assay. […] Depending on the donors, up to three major clusters were observed, each slightly shifted from the others, altogether spanning residues 1-33.

[5] = target: T3, human corticotropin-releasing hormone receptor 1 (CRHR1) (human, UniProt P34998 24-415); test: cell-based or functional assay
T3 sequence (looked up): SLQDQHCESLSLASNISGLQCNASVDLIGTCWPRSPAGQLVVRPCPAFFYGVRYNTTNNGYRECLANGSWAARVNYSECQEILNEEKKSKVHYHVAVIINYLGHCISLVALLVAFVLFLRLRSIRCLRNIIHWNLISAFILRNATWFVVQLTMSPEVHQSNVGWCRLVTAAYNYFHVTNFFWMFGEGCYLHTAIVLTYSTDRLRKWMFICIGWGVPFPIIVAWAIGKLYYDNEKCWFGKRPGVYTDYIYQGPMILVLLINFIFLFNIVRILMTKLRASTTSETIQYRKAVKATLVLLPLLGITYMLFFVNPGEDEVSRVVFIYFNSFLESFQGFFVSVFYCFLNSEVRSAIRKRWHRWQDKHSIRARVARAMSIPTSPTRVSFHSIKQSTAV

[6] = target: T3, human corticotropin-releasing hormone …; test: cell-based or functional assay; remark: listed apart in the source
[7] = target: rat CRHR2 (endogenous on A7r5 cells) (rat, UniProt P47866 20-411); test: cell-based or functional assay
[8] = male, Sprague Dawley, rat, plasma, iv, 196 nmol/kg, single intravenous dose 196 nmol/kg, individual animal
[9] = male, Sprague Dawley, rat, plasma, iv, 196 nmol/kg, single intravenous dose 196 nmol/kg, mean
[10] = single intravenous dose 196 nmol/kg, male Sprague Dawley rats, individual animal
[11] = single subcutaneous dose 196 nmol/kg, male Sprague Dawley rats, individual animal

rat CRHR2 (endogenous on A7r5 cells), sequence (P47866 20-411): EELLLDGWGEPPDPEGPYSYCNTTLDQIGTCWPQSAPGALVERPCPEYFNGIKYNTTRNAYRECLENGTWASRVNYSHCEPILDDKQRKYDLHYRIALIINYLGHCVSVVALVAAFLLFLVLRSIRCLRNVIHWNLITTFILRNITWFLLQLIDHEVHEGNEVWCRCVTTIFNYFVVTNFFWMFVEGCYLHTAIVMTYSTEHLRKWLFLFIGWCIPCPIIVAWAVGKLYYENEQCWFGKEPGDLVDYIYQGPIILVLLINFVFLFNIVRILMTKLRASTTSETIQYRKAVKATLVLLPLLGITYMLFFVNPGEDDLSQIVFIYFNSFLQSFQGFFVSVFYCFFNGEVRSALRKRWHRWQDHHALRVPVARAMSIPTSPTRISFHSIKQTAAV

In the case of CC[C@H](C)[C@H](NC(C)=O)C(=O)N[C@H](C(=O)N[C@H](C(=O)N[C@@H](CO)C(=O)N[C@@](C)(CC(C)C)C(=O)N[C@@H](CC(=O)O)C(=O)N[C@@H](C(=O)N1CCC[C@H]1C(=O)N[C@H](C(=O)NC(C)(C)C(=O)N[C@@](C)(CC(C)C)C(=O)N[C@@H](CC(C)C)C(=O)N[C@@H](CCC(N)=O)C(=O)N[C@H](C(=O)N[C@@H](CCCCN)C(=O)N[C@@H](CC(C)C)C(=O)N[C@@H](CCC(=O)O)C(=O)N[C@@H](CCC(N)=O)C(=O)N[C@@H](CCC(=O)O)C(=O)N[C@@H](CCCNC(=N)N)C(=O)N[C@@H](C)C(=O)N[C@@H](CCC(=O)O)C(=O)N[C@@H](CCCCN)C(=O)N[C@@H](C)C(=O)N[C@@H](CCCNC(=N)N)C(=O)N[C@@H](CCC(N)=O)C(=O)N[C@@H](CCC(N)=O)C(=O)N[C@@H](C)C(=O)N[C@@H](CCCCNC(=O)COCCOCCNC(=O)COCCOCCNC(=O)CC[C@H](NC(=O)CCCCCCCCCCCCCCCCCCC(=O)O)C(=O)O)C(=O)N[C@@H](CCC(=O)O)C(=O)N[C@@H](CC(N)=O)C(=O)N[C@H](C(=O)N[C@@H](CCC(=O)O)C(=O)N[C@H](C(=O)N[C@@H](CC(C)C)C(=O)N[C@@H](C)C(=O)N[C@@H](CCC(N)=O)C(=O)N[C@H](C(N)=O)C(C)C)[C@@H](C)CC)[C@@H](C)O)[C@@H](C)CC)[C@@H](C)CC)C(C)C)[C@@H](C)O)C(C)C [SEQ ID NO: 42, Ac-IVTS αMeL D (D-Val) PI Aib αMeL LQIKLEQERAEKARQQAK((2-[2-(2-Amino-ethoxy)-ethoxy]-acetyl)2-γE-CO-(CH2)18-CO2H)ENTEILAQV-NH2] (Ac-IVTS[αMeL]D[dV]PI[Aib][αMeL]LQIKLEQERAEKARQQAK([AEEA-AEEA-γGlu-C20 diacid])ENTEILAQV-NH2), the EC50 [1] is reported as 2.3e+06 pM, the EC50 [2] is reported as 6.6 ± 0.8 pM and the clearance [3, 8] is reported as 2.4 mL/h/kg. For the same molecule, the half-life [3, 8] was 36.1 h, the clearance [3, 9] was 2.43 mL/h/kg and the half-life [3, 9] was 39.3 h. The half-life ([3]; male, Sprague Dawley, rat, plasma, sc, 196 nmol/kg, single subcutaneous dose 196 nmol/kg, individual animal) was 33.2 h, the CL/F ([3]; male, Sprague Dawley, rat, plasma, sc, 196 nmol/kg, single subcutaneous dose 196 nmol/kg, individual animal, read-out: CL/F (converted)) was 5.41 mL/h/kg and the Tmax ([3]; male, Sprague Dawley, rat, plasma, sc, 196 nmol/kg, single subcutaneous dose 196 nmol/kg, individual animal, read-out: Tmax) was 48 h. The half-life ([3]; male, Sprague Dawley, rat, plasma, sc, 196 nmol/kg, single subcutaneous dose 196 nmol/kg, mean) was 42.2 h, the CL/F ([3]; male, Sprague Dawley, rat, plasma, sc, 196 nmol/kg, single subcutaneous dose 196 nmol/kg, mean, read-out: CL/F (converted)) was 4.85 mL/h/kg and the Tmax ([3]; male, Sprague Dawley, rat, plasma, sc, 196 nmol/kg, single subcutaneous dose 196 nmol/kg, mean, read-out: Tmax) was 40 h. The AUC0-inf ([3]; rat, plasma, sc, single subcutaneous dose 196 nmol/kg, male Sprague Dawley rats, mean, read-out: AUC0-inf) was 44.3 µM·h, the Cmax ([3]; rat, plasma, sc, single subcutaneous dose 196 nmol/kg, male Sprague Dawley rats, mean, read-out: Cmax) was 473 nM and the AUC0-inf ([3]; rat, plasma, single intravenous dose 196 nmol/kg, male Sprague Dawley rats, mean, read-out: AUC0-inf) was 80.6 µM·h. The C0 ([3]; rat, plasma, single intravenous dose 196 nmol/kg, male Sprague Dawley rats, mean, read-out: C0) was 2420 nM, the AUC0-inf [3, 10] was 81.5 µM·h and 77.9 µM·h and 82.5 µM·h and the C0 [3, 10] was 2760 nM and 2250 nM and 2260 nM. For the same molecule, the CL [3, 10] was 2.51 mL/h/kg and 2.37 mL/h/kg, the T1/2 [3, 10] was 35.8 h and 46.0 h and the AUC0-inf [3, 11] was 38.1 µM·h and 43.2 µM·h and 51.5 µM·h. The CL/F [3, 11] was 4.80 mL/h/kg and 4.35 mL/h/kg, the Cmax [3, 11] was 399 nM and 559 nM and 460 nM and the T1/2 [3, 11] was 39.1 h and 54.2 h. For the same molecule, the Tmax [3, 11] was 24 h.

In the case of “γGlu-GPSIVTS[αMeL]D[dV]PI[Aib][αMeL]LQIKLEQERAEKARQQAK([AEEA-AEEA-γGlu-C20 diacid])ENTEILAQV-NH2 [SEQ ID NO: 45, γE-GPSIVTS αMeL D (D-Val) PI Aib αMeL LQIKLEQERAEKARQQAK((2-[2-(2-Amino-ethoxy)-ethoxy]-acetyl)2-γE-CO-(CH2)18-CO2H)ENTEILAQV-NH2]”, the EC50 [1] is reported as 3.7e+06 pM, the EC50 [2] is reported as 9 ± 3.6 pM and the “MAPPS Assay >10 donors with diverse MHC” value ([4]; donors displaying MHC-II peptides / donors tested) is reported as 0/20. The “peptides displayed on MHC-II complexes” value ([4]; human dendritic cells from normal donors) was “no peptides displayed on MHC-II complexes”, the “immunogenicity compared with SEQ ID NO:54” value ([4]; in the MAPPs assay and/or the T cell proliferation assay) was “substantial improvements in immunogenicity over a compound comprising SEQ ID NO:54” and the “MAPPS Assay >10 donors with diverse MHC” value ([4]; percentage of donors displaying MHC-II peptides) was 0%.

In the case of IVLSLDVPIGLLQILLEQARARAAREQATTNARILARV-NH2 (ligand) [Human urocortin-2 (UCN2)], the “Y79 cAMP EC50” value [5] is reported as > 10000 nM and the “hCRHR1 cAMP EC50” value [6] is reported as > 10000 nM.

With Ac-GSPSIVTS[αMeL]DVPT[Aib][αMeL]LQKLLEQERAEKARQQAK([γGlu-AEEA-εLys-C20 diacid])EAAEILAQV-NH2 [polypeptide comprising SEQ ID NO:2] the “Y79 cAMP EC50” value [5] was 2100 nM, the “A7r5 cAMP EC50” value [7] was 0.544 nM and the “hCRHR1 cAMP EC50” value [6] was > 10000 nM.

B1: polypeptide comprising SEQ ID NO:25 (peptide)
peptide: [γGlu]GSPSIVTS[αMeL]DVPT[Aib][αMeL]LQKILEQERAEKARQQATEAAEILAQV-NH2
modifications: not fully specified (residue 1, N-terminus); also: Glu1 linked through its gamma-carboxyl to Gly2
In the case of B1, the “Y79 cAMP EC50” value [5] is reported as 620 nM, the “A7r5 cAMP EC50” value [7] is reported as 0.112 nM and the “hCRHR1 cAMP EC50” value [6] is reported as > 10000 nM.
